The values below come from patent US11166924B2, “N-methyl-d-aspartate receptor allosteric modulators and methods for their use” (Qingdao Primedicine Pharmaceutical Company, Ltd., priority 2016, dated 2021).

Common to all, as to assay type: cell-based
The target in test [1] is T1, GluN1/GluN2B NMDARs (Rattus norvegicus, UniProt P35439+Q00960).
T1 construct: expressed in transfected cells; host or cells: HEK293
Description: Whole-cell patch clamp recordings in HEK293 cells transfected with GluN1/GluN2B. As to conditions: HEK293, Table 2, read-out: Normalized Potentiation GluN1/GluN2B; for activation at 50 µM: 50 μM (footnote *).

Test [2] addresses NMDARs in cultured hippocampal neurons (Rattus norvegicus, UniProt P35439+Q00959). Kind of test: Whole-cell voltage clamp recordings of NMDAR currents in cultured hippocampal/cortical neurons. The following applies: for Potentiation or depression of NMDAR-currents: tested in a similar fashion as Npam02, FIG. 4c.
Test [3] has as its target T2, GluN1/GluN2A NMDARs (Rattus norvegicus, UniProt P35439+Q00959).
T2 construct: expressed in transfected cells; host or cells: HEK293
Kind of test: Whole-cell patch clamp recordings in HEK293 cells transfected with GluN1/GluN2A. The following applies: for activation at 100 µM / activation at 50 µM: HEK293, Table 2, read-out: Normalized Potentiation GluN1/GluN2A; for Normalized Potentiation: Table 1, positive modulation of GluN1/GluN2A NMDARs, concentration not given; for activation at 50 µM: 50 μM (footnote *). How it is done: Cells were transfected with a combination of pcDNA3-CMV expression vectors, each of which expressed one of the rat recombinant (GluN2AWT, GluN1WT, GluN2BWT) subunits. The sequences of all plasmids were confirmed by automated DNA sequencing. Human Embryonic Kidney 293 (HEK293 cells) were cultured in Dulbecco's Modified Eagle's Medium (DMEM) (Invitrogen) supplemented with 10% fetal bovine serum (FBS). When HEK293 cells achieved 90% confluence, plasmids of either GluN1 & GluN2A or GluN1 & GluN2B were co-transfected into the cells using Lipofectamine 2000 (Invitrogen, 11668019) according to manufacturer's instructions. HEK293 cells were then maintained in the 37° C. incubator with […] and 5% CO2 for 48 hrs before being used in experiments. The transfection ratios for the NMDAR subunit combinations were all 1:1 (GluN1/GluN2A or GluN1/GluN2B).
Whole cell patch-clamp recordings were performed under voltage-clamp mode using an Axopatch 200B or 1D patch-clamp amplifier (Molecular Devices). Whole-cell currents were recorded at a holding potential of −60 mV unless indicated elsewhere, and signals were filtered at 2 kHz, digitized at 10 kHz (Digidata 1322A). Recording pipettes (3-5 MΩ) were filled with intracellular solution containing (mM): CsCl 140, HEPES 10, Mg-ATP 4, QX-314 5, pH 7.20; osmolarity, 290-295 mOsm. BAPTA (10 mM) was added in the intracellular solution (unless otherwise specified). The coverslips were continuously superfused with extracellular solution containing (mM): NaCl 140, KCl 5.4, HEPES 10, CaCl2 1.3, glucose 20, pH 7.4; osmolarity, 305-315 mOsm. NMDA-induced currents were applied by NMDA through perfusion fast-step (Warner Instruments). With perfusion fast-step system, NMDA application was achieved by using a two-square barrel glass tubing and depending on the age of the cultured neurons, CNQX (10 μM), TTX (0.5 μM) or BIC (10 μM) were added in the extracellular solution to minimize the activation of ionotropic glutamate receptors and voltage-gated sodium channels, respectively. All experiments were performed at room temperature. Recordings from at least six HEK293 cells/neurons were performed for all active compounds. Data were pooled among HEK293 cells or primary neurons and composite dose-response data were fitted by the equation Percentage Response=100×Relative Efficacy/[1+(EC50/Concentration)nH], where EC50 is the concentration of agonist that produces a half-maximal response, relative efficacy is the response at maximally effective concentration relative to the maximal response of glutamate, and nH is the Hill slope.
GluN1/GluN2A NMDAR subtypes are an attractive target for positive allosteric modulation. The present inventors employed in silico computational drug discovery methods to conduct a virtual screen of purchasable lead-like compounds from the ZINC database (Irwin, J., et al. Abstr Pap Am Chem Soc (2005) 230:U1009) and some synthetic compounds to identify potential GluN1/GluN2A-NMDAR modulators. The in silico methods included large-scale docking against the interstice interface of the GluN1/GluN2A heterodimer and consensus scoring to select compounds for empirical testing. Candidate compounds were further screened by using GluN1/GluN2A transiently transfected in human embryonic kidney (HEK293) cells and tested by whole-cell patch clamp recordings.
The inventors used transiently transfected HEK293 cells expressing either GluN1/GluN2A or GluN1/GluN2B NMDARs and tested by whole-cell voltage patch clamp recordings to see whether selected compounds were controlling the subtype selectivity profile of the drugs.
Whole-cell patch clamp recordings were performed to measure glutamate evoked currents with chloride-based pipette solutions at a holding potential of −60 mV.
(In general: In patch-clamp work, channel activity is measured electrically.)

Test [4] concerns the target T3, GluN2A NMDARs in GluN2B-lacking neurons (Mus musculus, UniProt P35436+P35438).
T3 construct: endogenous in cells; host or cells: primary cortical neurons from GluN2B-knockout mouse embryos
Kind of test: Whole-cell recordings in GluN2B-knockout cortical neurons. As to conditions: 0.2 μM with NMDA 20 μM; conditional GluN2B-knockout neurons.

A word on the EC50: it is the concentration that produces a half-maximal response.

T2 sequence (Q00959 23-1464, other chains not shown): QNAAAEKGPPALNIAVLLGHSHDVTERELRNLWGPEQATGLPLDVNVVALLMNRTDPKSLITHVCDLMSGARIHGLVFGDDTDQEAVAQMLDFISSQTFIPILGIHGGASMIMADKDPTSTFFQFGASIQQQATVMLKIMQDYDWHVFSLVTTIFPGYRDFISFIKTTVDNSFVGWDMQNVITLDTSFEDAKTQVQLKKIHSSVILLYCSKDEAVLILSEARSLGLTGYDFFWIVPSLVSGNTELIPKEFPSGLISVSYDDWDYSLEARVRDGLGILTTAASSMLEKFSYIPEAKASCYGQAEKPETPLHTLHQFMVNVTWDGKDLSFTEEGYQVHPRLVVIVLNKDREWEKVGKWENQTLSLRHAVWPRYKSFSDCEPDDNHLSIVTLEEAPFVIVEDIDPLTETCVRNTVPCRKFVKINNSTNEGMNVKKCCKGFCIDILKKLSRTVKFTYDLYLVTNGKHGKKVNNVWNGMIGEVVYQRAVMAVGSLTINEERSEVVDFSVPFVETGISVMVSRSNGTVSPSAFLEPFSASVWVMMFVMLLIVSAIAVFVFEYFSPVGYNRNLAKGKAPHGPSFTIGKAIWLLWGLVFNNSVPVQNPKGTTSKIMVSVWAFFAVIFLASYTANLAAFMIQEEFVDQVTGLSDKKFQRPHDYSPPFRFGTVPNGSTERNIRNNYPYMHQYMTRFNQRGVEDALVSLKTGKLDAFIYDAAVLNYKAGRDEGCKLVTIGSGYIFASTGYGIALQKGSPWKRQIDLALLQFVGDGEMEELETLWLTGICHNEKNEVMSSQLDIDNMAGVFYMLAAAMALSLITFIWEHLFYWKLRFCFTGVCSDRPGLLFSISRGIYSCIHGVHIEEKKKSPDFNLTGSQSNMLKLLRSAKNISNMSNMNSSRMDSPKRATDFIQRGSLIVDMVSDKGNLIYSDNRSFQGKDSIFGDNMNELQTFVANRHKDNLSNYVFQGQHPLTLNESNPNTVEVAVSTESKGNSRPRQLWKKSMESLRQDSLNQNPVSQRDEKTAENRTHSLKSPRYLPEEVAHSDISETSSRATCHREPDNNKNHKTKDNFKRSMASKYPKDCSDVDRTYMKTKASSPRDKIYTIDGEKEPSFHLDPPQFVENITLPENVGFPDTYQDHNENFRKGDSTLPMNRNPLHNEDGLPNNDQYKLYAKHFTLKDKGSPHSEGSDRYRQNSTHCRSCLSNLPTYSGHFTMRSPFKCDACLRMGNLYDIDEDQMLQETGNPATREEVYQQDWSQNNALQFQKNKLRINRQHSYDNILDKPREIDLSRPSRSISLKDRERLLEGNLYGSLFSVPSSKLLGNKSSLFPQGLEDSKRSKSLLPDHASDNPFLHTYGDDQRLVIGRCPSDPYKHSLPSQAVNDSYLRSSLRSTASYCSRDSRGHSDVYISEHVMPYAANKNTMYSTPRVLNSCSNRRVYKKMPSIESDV
NMDARs in cultured hippocampal neurons, sequence (Q00959 23-1464, other chains not shown): as above
T1 sequence (Q00960 27-1482, other chains not shown): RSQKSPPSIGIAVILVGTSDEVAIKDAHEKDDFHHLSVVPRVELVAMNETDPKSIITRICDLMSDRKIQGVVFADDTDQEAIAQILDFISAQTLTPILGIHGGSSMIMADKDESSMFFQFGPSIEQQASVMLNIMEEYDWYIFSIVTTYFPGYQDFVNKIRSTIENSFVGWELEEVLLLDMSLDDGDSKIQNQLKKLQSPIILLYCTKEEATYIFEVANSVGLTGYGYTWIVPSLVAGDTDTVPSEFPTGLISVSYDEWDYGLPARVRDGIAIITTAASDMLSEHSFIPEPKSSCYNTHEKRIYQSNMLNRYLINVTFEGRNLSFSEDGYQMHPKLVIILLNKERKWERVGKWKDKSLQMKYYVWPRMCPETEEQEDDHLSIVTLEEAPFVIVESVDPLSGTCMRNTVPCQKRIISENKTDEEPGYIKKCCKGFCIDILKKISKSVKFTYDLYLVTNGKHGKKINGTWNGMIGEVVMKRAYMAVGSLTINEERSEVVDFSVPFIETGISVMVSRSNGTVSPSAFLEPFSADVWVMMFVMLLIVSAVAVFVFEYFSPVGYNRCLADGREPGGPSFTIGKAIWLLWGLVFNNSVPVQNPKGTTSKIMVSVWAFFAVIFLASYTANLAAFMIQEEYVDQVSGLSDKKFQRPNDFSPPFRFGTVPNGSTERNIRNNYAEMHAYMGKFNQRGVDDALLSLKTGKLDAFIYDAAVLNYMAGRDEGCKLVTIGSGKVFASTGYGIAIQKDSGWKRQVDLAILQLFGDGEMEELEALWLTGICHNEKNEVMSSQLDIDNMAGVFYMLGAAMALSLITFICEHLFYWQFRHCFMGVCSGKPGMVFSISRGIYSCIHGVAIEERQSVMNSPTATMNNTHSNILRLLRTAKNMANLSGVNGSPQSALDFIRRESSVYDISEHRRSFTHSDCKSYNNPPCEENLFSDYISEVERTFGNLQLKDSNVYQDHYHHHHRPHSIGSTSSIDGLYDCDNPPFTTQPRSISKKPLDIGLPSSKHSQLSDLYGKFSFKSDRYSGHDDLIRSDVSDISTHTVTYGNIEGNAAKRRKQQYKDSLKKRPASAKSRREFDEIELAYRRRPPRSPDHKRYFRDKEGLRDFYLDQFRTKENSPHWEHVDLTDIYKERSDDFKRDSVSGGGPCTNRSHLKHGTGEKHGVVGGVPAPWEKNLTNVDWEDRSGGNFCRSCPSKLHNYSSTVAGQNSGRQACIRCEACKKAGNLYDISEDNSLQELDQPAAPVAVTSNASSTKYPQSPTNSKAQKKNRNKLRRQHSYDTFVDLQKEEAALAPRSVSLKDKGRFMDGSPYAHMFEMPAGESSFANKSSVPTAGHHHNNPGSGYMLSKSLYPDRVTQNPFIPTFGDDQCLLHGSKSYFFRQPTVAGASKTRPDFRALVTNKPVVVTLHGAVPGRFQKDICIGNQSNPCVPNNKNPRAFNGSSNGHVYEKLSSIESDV

Take `O=C(N/N=C/c1cccc(O)c1O)c1ccccc1` [Npam01, (E)-N′-(2,3-dihydroxybenzylidene)benzohydrazide]: in test [1], the activation at 100 µM is -28 ± 5.11%. The “Potentiation or depression of NMDAR-currents” value in test [2] was “no observable potentiation or depression effect”. Besides, in test [3], the activation at 100 µM is 26.2 ± 2.24% and the “Normalized Potentiation” value is 2.61 ± 9.69%.

Turning to `N[C@@H](CCCP(=O)(O)O)C(=O)O` [APV, reference compound], the Block of currents entry in test [2] (50 μM) is listed as “blocked all currents”.

Take `O=C(N/N=C/c1cccc(O)c1O)c1cc(O)cc(O)c1` [Npam70, (E)-N′-(2,3-dihydroxybenzylidene)-3,5-dihydroxybenzohydrazide]: the activation at 50 µM was -45.6 ± 3.67% in test [1] and -24.1 ± 2.47% in test [3].

Consider `CN[C@H](CC(=O)O)C(=O)O` [NMDA, reference compound], for which, in test [2] (cultured hippocampal neurons, FIG. 13), the “pEC50 of NMDA dose-response curve” value is 1.484±0.082 μM. Moreover, the EC50 in test [2] (cultured hippocampal neurons, FIG. 13, read-out: EC50 of NMDA dose-response curve) was 30.5 ± 11.7 µM.

Take `COc1cccc(/C=N/NC(=O)c2ccccc2I)c1O` [Npam66, (E)-N′-(2-hydroxy-3-methoxybenzylidene)-2-iodobenzohydrazide]: in test [1] (25 μM), the activation at 25 µM is -20.9 ± 3.69%. Further, in test [3], the activation at 100 µM amounted to 45.7 ± 3.87%.

As to `C[C@H](NC(c1cccc2[nH]c(=O)c(=O)[nH]c12)P(=O)(O)O)c1ccc(Br)cc1` (some centres unmarked) [NVP-AAM007, reference compound], the “Block of NMDAR-currents” value in test [4] worked out at 90.73±1.11%. In addition, the “Block of the Npam02-increased NMDAR currents” value in test [3] (0.2 μM co-applied with both co-agonists) is reported as “completely blocked”.

For the compound `Cc1cccc(C(=O)N/N=C/c2cccc(O)c2O)c1` [Npam71, (E)-N′-(2,3-dihydroxybenzylidene)-3-methylbenzohydrazide], the values for the activation at 50 µM in test [1] and in test [3] were -48.6 ± 4.77% and 41.7 ± 6.78%, respectively.

As for `COc1cc(Cl)cc(/C=N/NC(=O)c2ccccc2Br)c1O` [Npam75, (E)-2-bromo-N′-(5-chloro-2-hydroxy-3-methoxybenzylidene)benzohydrazide], the figures for the activation at 100 µM in test [1] and in test [3] were -17 ± 2.14% and 57.2 ± 3.78%, respectively.

`Cc1ccccc1C(=O)N/N=C/c1cccc(O)c1O` [Npam04, (E)-N′-(2,3-dihydroxybenzylidene)-2-methylbenzohydrazide]: the activation at 100 µM is -54.6 ± 5.48% in test [1] and 33.7 ± 4.84% in test [3]. Further, in test [2], the “Potentiation or depression of NMDAR-currents” value is “no observable potentiation or depression effect”.

Take `COc1cc([N+](=O)[O-])cc(/C=N/NC(=O)c2ccccc2C)c1O` [Npam72, (E)-N′-(2-hydroxy-3-methoxy-5-nitrobenzylidene)-2-methylbenzohydrazide]: the values for the activation at 100 µM in test [1] and in test [3] were -24.2 ± 4.55% and 118 ± 18.5%, respectively. Besides, the “Selectivity for GluN1/GluN2A versus GluN1/GluN2B NMDARs” value in test [3] (FIG. 2, HEK293 cells expressing GluN1/GluN2A and GluN1/GluN2B) was “selective for GluN1/GluN2A NMDARs”.

`O=C(N/N=C/c1cccc(O)c1O)c1cccc(I)c1` [Npam30, (E)-N′-(2,3-dihydroxybenzylidene)-3-iodobenzohydrazide]: the activation at 100 µM in test [1] was -100 ± 2.83%; in test [3], 52.7 ± 4.87%. Besides, the “Normalized Potentiation” value in test [3] came to 3.99 ± 4.92%.
